Results taken from patent US10538535B2, “Antitumoral compounds” (priority 2017, dated 2020).
Read-outs that look alike come from different tables or passages of the source.

Experiments:
A549 cells = assay: cells; conditions: Homo sapiens, A549, 72 h
Summary of the method: (§1)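 Human cancer lines grown in DMEM plus 10% FBS at 37° C. were plated at 5000 cells/well and left 18 hours before dosing. Test compounds (10 to 0.003 μg/mL, triplicates) acted for 72 hours, after which glutaraldehyde-fixed cells were stained with sulforhodamine B.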

HT29 cells = assay: cells; conditions: Homo sapiens, HT-29, 72 h
Summary of the method: as §1

MDA-MB-231 cells = assay: cells; conditions: Homo sapiens, MDA-MB-231, 72 h
Summary of the method: as §1

PSN1 cells = assay: cells; conditions: Homo sapiens, PSN1, 72 h
Summary of the method: as §1

H460 tumors = conditions: iv, 0.5 mg/kg
Procedure: (§2) Female athymic nu/nu mice (Harlan Laboratories Models, S. L. Barcelona, Spain or Envigo, Spain) were utilized for all experiments. Animal were housed in individually ventilated cages Sealsafe® Plus, Techniplast S.P.A.), up to ten per cage on a 12-hour light-dark cycle at 21-23° C. and 40-60% humidity. […] Animals were acclimated for at least 5 days prior to tumor implantation with a tumor cell suspension.
H460 cells were maintained in vitro at 37° C. with 5% CO2 in Dulbecco's Modified Eagle's Medium (Sigma-Aldrich, Co). Culture cells were passaged every 3 to 5 days upon reaching confluence. Each animal was subcutaneously implanted (on the right flank using 26 G needle and a 1 cc syringe) at 4-6 weeks of age with 5×10^6 H460 cells suspended in 0.05 mL of a solution consisting of 50% Matrigel® (Corning Incorporated Life Sciences) and 50% medium without serum or antibiotics.
(§3) Treatment tolerability was assessed by monitoring body weight evolution, clinical signs of systemic toxicity, as well as evidences of local damage in the injection site.
(§4) Treatments producing >20% lethality and/or 20% net body weight loss were considered toxic.

A2780 tumors = conditions: A2780 xenograft
Procedure: as §2
Culture cells were passaged every 3 to 5 days upon reaching confluence. Each animal was subcutaneously implanted (on the right flank using 26 G needle and a 1 cc syringe) at 4-6 weeks of age with 10×10^6 A2780 cells suspended in 0.05 mL of a solution consisting of 50% Matrigel® (Corning Incorporated Life Sciences) and 50% medium without serum or antibiotics.
as §3
In xenograft studies with other cell lines: • Tumor volume was calculated using the equation (a·b^2)/2, where a: length (longest diameter) and b: width (shortest diameter) were measured in mm by using digital caliper (Fowler Sylvac, S235PAT).
as §4

HGC27 tumors = conditions: HGC27 xenograft
H82 tumors = assay: In vivo xenograft, human lung (SCLC) H82; conditions: iv weekly, 32 and ET-736 0.5 mg/Kg
H526 tumors = assay: In vivo xenograft, human lung (SCLC) H526; conditions: iv weekly, 32 and ET-736 0.5 mg/Kg

Compound: COc1c(C)cc2c(c1O)[C@@H]1[C@@H]3[C@@H]4SC[C@]5(NCCc6c5oc5ccccc65)C(=O)OC[C@@H](c5c6c(c(C)c(OC(C)=O)c54)OCO6)N3[C@@H](O)[C@H](C2)N1C [Compound 32]
- GI50 (A549 cells): 6.88 nM
- CC50 (A549 cells; read-out: LC50): > 13.2 nM
- IC (TGI) (A549 cells; read-out: TGI): > 13.2 nM
- GI50 (HT29 cells): 6.88 nM
- CC50 (HT29 cells; read-out: LC50): > 13.2 nM
- IC (TGI) (HT29 cells; read-out: TGI): > 13.2 nM
- GI50 (MDA-MB-231 cells): 4.76 nM
- CC50 (MDA-MB-231 cells; read-out: LC50): > 13.2 nM
- IC (TGI) (MDA-MB-231 cells; read-out: TGI): 10.5 nM
- GI50 (PSN1 cells): 6.09 nM
- CC50 (PSN1 cells; read-out: LC50): 12 nM
- IC (TGI) (PSN1 cells; read-out: TGI): 8.34 nM
- Median Tumor Volume (H460 tumors; 0 h): 183.9 mm^3
- Median Tumor Volume (H460 tumors; 48 h): 455.2 mm^3
- Median Tumor Volume (H460 tumors; 120 h): 784.8 mm^3
- Median Tumor Volume (H460 tumors; 168 h): 837.4 mm^3
- Median Tumor Volume (H460 tumors; 336 h): 1845.5 mm^3
- Median Tumor Volume (H460 tumors; 384 h): 2025.0 mm^3
- Median Tumor Volume (A2780 tumors; Day 0): 168.6 mm^3
- Median Tumor Volume (A2780 tumors; Day 2): 262.9 mm^3
- Median Tumor Volume (A2780 tumors; Day 5): 572.7 mm^3
- Median Tumor Volume (A2780 tumors; Day 7): 997.5 mm^3
- Median Tumor Volume (A2780 tumors; Day 9): 1359.9 mm^3
- Median Tumor Volume (A2780 tumors; Day 12): 1715.0 mm^3
- Median Tumor Volume (A2780 tumors; Day 14): 2025.0 mm^3
- Median Tumor Volume (A2780 tumors; Day 16): 2025.0 mm^3
- Median Tumor Volume (HGC27 tumors; Day 0): 194.8 mm^3
- Median Tumor Volume (HGC27 tumors; Day 2): 386.3 mm^3
- Median Tumor Volume (HGC27 tumors; Day 5): 551.3 mm^3
- Median Tumor Volume (HGC27 tumors; Day 7): 579.2 mm^3
- Median Tumor Volume (HGC27 tumors; Day 9): 665.8 mm^3
- Median Tumor Volume (HGC27 tumors; Day 12): 701.1 mm^3
- Median Tumor Volume (HGC27 tumors; Day 14): 814.5 mm^3
- Median Tumor Volume (HGC27 tumors; Day 16): 959.9 mm^3
- Median Tumor Volume (HGC27 tumors; Day 19): 1312.4 mm^3
- Median Tumor Volume (HGC27 tumors; Day 21): 1626.8 mm^3
- Median Tumor Volume (HGC27 tumors; Day 23): 1737.3 mm^3
- Median Tumor Volume (H82 tumors; Table 64, Day 0): 171.6 mm^3
- Median Tumor Volume (H82 tumors; Table 64, Day 2): 309.4 mm^3
- Median Tumor Volume (H82 tumors; Table 64, Day 5): 485.0 mm^3
- Median Tumor Volume (H82 tumors; Table 64, Day 7): 708.4 mm^3
- Median Tumor Volume (H82 tumors; Table 64, Day 9): 972.6 mm^3
- Median Tumor Volume (H82 tumors; Table 64, Day 12): 1101.6 mm^3
- Median Tumor Volume (H82 tumors; Table 64, Day 14): 1339.6 mm^3
- Median Tumor Volume (H82 tumors; Table 64, Day 16): 1430.3 mm^3
- Median Tumor Volume (H82 tumors; Table 64, Day 19): 1885.7 mm^3
- Median Tumor Volume (H526 tumors; Table 63, Day 0): 212.1 mm^3
- Median Tumor Volume (H526 tumors; Table 63, Day 2): 277.3 mm^3
- Median Tumor Volume (H526 tumors; Table 63, Day 4): 127.0 mm^3
- Median Tumor Volume (H526 tumors; Table 63, Day 7): 95.0 mm^3
- Median Tumor Volume (H526 tumors; Table 63, Day 9): 63.1 mm^3
- Median Tumor Volume (H526 tumors; Table 63, Day 11): 62.5 mm^3
- Median Tumor Volume (H526 tumors; Table 63, Day 14): 62.5 mm^3
- Median Tumor Volume (H526 tumors; Table 63, Day 16): 62.5 mm^3
- Median Tumor Volume (H526 tumors; Table 63, Day 21): 4.0 mm^3
- Median Tumor Volume (H526 tumors; Table 63, Day 28): 4.0 mm^3
- Median Tumor Volume (H526 tumors; Table 63, Day 35): 55.3 mm^3
- Median Tumor Volume (H526 tumors; Table 63, Day 42): 85.3 mm^3
- Median Tumor Volume (H526 tumors; Table 63, Day 49): 185.6 mm^3
- Median Tumor Volume (H526 tumors; Table 63, Day 56): 169.1 mm^3
- Median Tumor Volume (H526 tumors; Table 63, Day 63): 62.5 mm^3
- Median Tumor Volume (H526 tumors; Table 63, Day 70): 88.9 mm^3
- Median Tumor Volume (H526 tumors; Table 63, Day 77): 280.6 mm^3
- Median Tumor Volume (H526 tumors; Table 63, Day 84): 694.2 mm^3
- Median Tumor Volume (H526 tumors; Table 63, Day 91): 1150.9 mm^3
